Literature values in patent US9119854B2, “Methods for treating cancer using combination therapy” (CELGENE CORPORATION, priority 2013, dated 2015).

What was measured:
BTK = BTK (Homo sapiens, UniProt Q06187); settings: enzymatic and cellular assays; the '610 publication
CRBN = CRBN (Homo sapiens, UniProt Q96SW2); settings: in vitro; Ito et al., Science 2010
Chain of CRBN (Q96SW2 whole entry): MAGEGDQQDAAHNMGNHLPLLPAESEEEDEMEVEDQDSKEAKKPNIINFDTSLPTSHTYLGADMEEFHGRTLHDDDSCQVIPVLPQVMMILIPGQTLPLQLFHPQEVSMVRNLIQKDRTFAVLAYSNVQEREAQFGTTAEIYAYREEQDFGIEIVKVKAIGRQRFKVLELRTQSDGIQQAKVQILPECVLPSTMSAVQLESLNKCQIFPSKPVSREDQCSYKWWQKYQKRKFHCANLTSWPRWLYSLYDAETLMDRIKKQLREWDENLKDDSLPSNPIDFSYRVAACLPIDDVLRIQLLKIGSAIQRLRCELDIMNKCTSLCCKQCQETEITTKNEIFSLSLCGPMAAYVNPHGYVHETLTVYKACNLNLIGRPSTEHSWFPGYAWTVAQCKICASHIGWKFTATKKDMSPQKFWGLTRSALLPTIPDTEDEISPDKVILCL
Chain of CRBN (Q16531 whole entry partner): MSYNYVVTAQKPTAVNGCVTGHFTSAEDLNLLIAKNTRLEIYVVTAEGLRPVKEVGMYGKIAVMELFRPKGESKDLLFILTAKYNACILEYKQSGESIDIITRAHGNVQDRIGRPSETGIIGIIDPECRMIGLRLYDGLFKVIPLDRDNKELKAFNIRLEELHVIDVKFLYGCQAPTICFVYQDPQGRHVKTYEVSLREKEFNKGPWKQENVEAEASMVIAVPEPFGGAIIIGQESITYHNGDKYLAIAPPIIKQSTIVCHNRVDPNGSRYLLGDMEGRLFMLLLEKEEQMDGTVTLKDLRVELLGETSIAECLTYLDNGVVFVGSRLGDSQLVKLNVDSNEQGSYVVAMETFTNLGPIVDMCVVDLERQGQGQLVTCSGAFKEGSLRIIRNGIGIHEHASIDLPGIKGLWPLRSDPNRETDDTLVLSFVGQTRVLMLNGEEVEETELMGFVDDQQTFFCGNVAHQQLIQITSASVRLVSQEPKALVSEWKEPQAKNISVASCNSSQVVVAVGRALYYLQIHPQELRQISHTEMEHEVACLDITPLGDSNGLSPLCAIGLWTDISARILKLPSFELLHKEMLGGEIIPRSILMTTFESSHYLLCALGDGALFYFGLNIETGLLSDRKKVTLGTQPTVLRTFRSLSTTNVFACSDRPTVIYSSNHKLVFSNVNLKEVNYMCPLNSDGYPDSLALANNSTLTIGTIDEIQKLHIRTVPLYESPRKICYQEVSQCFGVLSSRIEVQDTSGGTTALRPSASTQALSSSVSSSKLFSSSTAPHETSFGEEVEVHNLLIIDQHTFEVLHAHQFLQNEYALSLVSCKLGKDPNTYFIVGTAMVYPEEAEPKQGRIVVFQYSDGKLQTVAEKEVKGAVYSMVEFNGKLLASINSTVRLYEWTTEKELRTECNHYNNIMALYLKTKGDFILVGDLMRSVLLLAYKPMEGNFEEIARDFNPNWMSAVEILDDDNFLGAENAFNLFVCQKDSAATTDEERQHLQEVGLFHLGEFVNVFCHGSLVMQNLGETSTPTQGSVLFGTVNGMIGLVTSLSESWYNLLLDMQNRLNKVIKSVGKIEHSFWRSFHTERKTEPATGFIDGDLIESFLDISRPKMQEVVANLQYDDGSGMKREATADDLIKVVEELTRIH
Chain of CRBN (Q13619 whole entry partner): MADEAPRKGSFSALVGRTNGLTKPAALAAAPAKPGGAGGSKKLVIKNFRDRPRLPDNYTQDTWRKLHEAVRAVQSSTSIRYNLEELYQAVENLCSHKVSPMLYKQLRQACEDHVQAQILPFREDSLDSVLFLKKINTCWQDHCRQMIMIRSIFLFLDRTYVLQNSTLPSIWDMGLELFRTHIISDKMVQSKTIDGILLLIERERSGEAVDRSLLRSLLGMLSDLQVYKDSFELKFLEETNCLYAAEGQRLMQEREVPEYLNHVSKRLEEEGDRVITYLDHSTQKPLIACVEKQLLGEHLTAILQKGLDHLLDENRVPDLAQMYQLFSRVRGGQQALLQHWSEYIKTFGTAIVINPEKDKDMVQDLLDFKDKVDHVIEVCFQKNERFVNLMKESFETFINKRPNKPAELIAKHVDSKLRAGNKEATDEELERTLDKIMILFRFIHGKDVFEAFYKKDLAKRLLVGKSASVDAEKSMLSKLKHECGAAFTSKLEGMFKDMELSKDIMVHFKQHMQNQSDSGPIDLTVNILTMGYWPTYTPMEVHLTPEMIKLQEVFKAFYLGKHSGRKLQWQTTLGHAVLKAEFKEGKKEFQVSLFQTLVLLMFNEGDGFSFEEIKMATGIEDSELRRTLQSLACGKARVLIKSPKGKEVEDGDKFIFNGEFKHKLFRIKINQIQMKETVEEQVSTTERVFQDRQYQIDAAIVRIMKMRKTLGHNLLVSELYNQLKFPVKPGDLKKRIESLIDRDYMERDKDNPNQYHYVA
Chain of CRBN (P62877 whole entry partner): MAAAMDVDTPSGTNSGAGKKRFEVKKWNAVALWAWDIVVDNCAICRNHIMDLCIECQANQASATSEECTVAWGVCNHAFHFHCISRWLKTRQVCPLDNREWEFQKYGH

Chain of BTK (Q06187 whole entry, species assumed): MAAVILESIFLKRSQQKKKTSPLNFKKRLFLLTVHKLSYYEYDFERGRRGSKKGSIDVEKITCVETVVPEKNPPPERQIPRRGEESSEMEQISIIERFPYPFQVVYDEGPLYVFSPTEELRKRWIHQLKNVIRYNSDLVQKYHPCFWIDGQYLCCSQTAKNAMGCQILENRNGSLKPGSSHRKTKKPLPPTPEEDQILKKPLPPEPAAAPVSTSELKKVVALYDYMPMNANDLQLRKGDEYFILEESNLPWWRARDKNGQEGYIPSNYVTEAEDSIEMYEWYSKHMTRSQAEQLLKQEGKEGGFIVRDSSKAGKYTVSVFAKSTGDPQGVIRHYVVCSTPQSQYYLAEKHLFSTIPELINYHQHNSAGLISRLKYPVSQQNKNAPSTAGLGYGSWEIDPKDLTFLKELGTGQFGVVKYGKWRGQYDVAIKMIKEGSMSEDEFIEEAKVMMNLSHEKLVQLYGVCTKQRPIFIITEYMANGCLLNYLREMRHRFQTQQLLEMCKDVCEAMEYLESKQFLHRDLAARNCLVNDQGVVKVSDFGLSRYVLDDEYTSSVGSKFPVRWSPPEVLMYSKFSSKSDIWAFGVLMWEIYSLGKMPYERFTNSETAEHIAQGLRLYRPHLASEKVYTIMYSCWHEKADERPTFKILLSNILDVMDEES

Row | inhibition of BTK (BTK) | auto-ubiquitination of CRBN (CRBN) | SMILES | B-cell proliferation and activation (B-cell)
1 | covalent, irreversible inhibition | – | C=CC(=O)Nc1cccc(Nc2nc(Nc3ccc(OCCOC)cc3)ncc2F)c1 [Compound AA, N-(3-(5-fluoro-2-(4-(2-methoxyethoxy)phenylamino)pyrimidin-4-ylamino)phenyl)acrylamide] | found to inhibit
2 | – | able to inhibit | O=C1CCC(N2C(=O)c3ccccc3C2=O)C(=O)N1 (stereo not drawn) [thalidomide] | –
